Values of other authors as cited in patent US20260240855A1 (priority 2023, published 2026).

System: extracellular signal-regulated kinase (ERK)
Settings: preclinical studies

Structure (SMILES): C=CC(=O)N1CCN(c2nc(=O)n(-c3c(C)ccnc3C(C)C)c3nc(-c4c(O)cccc4F)c(F)cc23)[C@@H](C)C1 (atropisomer, axis not shown; (M)) [Sotorasib, 6-fluoro-7-(2-fluoro-6-hydroxyphenyl)-(1M)-1-[4-methyl-2-(propan-2-yl)pyridin-3-yl]-4-[(2S)-2-methyl-4-(prop-2-enoyl)piperazin-1-yl]pyrido[2,3-d]pyrimidin-2(1H)-one]
- phosphorylation of extracellular signal-regulated kinase (ERK): inhibited nearly all detectable phosphorylation
